Results from article PMC6112376, “Comprehensive Analyses and Prioritization of Tox21 10K Chemicals Affecting Mitochondrial Function by in-Depth Mechanistic Studies” (Environmental Health Perspectives, 2018).
Read-outs that look alike come from different tables or passages of the source.

Tests used:
HepG2 cells [1] = settings: for IC50: read-out: MMP assays IC50 (µM) HepG2
HepG2 cells [2] = settings: cited from earlier work
rat primary hepatocytes = assay: MMP assay in rat primary hepatocytes; settings: for IC50: read-out: MMP assays IC50 (µM) Rat Hepatocytes
[3] = HepG2 cells, single number from one experiment
[4] = read-out: MMP assays IC50 (µM), qHTS-HepG2
[5] = rat hepatocytes, mean ± SD of three experiments
[6] = read-out: MMP assays IC50 (µM) qHTS-HepG2

## COC(=O)C1=C(C)NC(C)=C(C(=O)O[C@@H]2CCCN(Cc3ccccc3)C2)[C@@H]1c1cccc([N+](=O)[O-])c1.Cl (racemic) [rac Benidipine hydrochloride]
HepG2 cells [1]; [3]
  MMP assays efficacy (%) HepG2: -89%
  IC50: 30.8 µM
HepG2 cells [2]
  MMP assays efficacy (%) qHTS-HepG2: -93±18%
HepG2 cells [2]; [4]
  IC50: 15 ± 3.18 µM
Rat primary hepatocytes; [5]
  MMP assays IC50 (µM) Rat Hepatocytes: inactive
  MMP assays efficacy (%) Rat Hepatocytes: inactive

## CCN(C(=O)N(CC)c1ccccc1)c1ccccc1 [N,Nφ-Diethylcarbanilide]
HepG2 cells [1]; [3]
  MMP assays IC50 (µM) HepG2: inactive
  MMP assays efficacy (%) HepG2: inactive
HepG2 cells [2]
  MMP assays efficacy (%) qHTS-HepG2: -69±23%
HepG2 cells [2]; [4]
  IC50: 21.7 ± 38.2 µM
Rat primary hepatocytes; [5]
  MMP assays efficacy (%) Rat Hepatocytes: -58±11%
  IC50: 13.1 ± 16.4 µM

## C[C@H](/C=C/[C@H](C)C(C)(C)O)[C@H]1CC[C@H]2/C(=C/C=C3C[C@@H](O)C[C@H](O)C3)CCC[C@]12C [Paricalcitol]
HepG2 cells [1]; [3]
  MMP assays IC50 (µM) HepG2: inactive
  MMP assays efficacy (%) HepG2: inactive
HepG2 cells [2]
  MMP assays efficacy (%) qHTS-HepG2: -69±16%
HepG2 cells [2]; [4]
  IC50: 8.91 ± 1.56 µM
Rat primary hepatocytes; [5]
  MMP assays IC50 (µM) Rat Hepatocytes: inactive
  MMP assays efficacy (%) Rat Hepatocytes: inactive

## CCn1c2ccccc2c2cc(N)ccc21.Cl [3-Amino-9-ethylcarbazole hydrochloride]
HepG2 cells [1]; [3]
  MMP assays efficacy (%) HepG2: -38%
  IC50: 14.1 µM
HepG2 cells [2]
  MMP assays efficacy (%) qHTS-HepG2: -93±11%
HepG2 cells [2]; [6]
  IC50: 35.4 ± 24.5 µM
Rat primary hepatocytes; [5]
  MMP assays efficacy (%) Rat Hepatocytes: -53±23%
  IC50: 56.2 µM

## CCOc1ccc2[nH]cc(C(=O)NCc3ccccc3)c(=O)c2n1
HepG2 cells [1]; [3]
  MMP assays efficacy (%) HepG2: -92%
  IC50: 15.8 µM
HepG2 cells [2]
  MMP assays efficacy (%) qHTS-HepG2: -88±7%
HepG2 cells [2]; [4]
  IC50: 14.8 ± 9.66 µM
Rat primary hepatocytes; [5]
  MMP assays efficacy (%) Rat Hepatocytes: -80±31%
  IC50: 24 ± 16.6 µM

## CCC(=C(CC)c1ccc(O)cc1)c1ccc(O)cc1 [(Z,E)-Diethylstilbestrol]
HepG2 cells [1]
  MMP assays efficacy (%) HepG2: -104%
HepG2 cells [2]
  MMP assays efficacy (%) qHTS-HepG2: -98±10%
Rat primary hepatocytes
  IC50: 42.8 ± 10.3 µM

## CCC(=O)O[C@]1(C(=O)CCl)[C@@H](C)C[C@H]2[C@@H]3CCC4=CC(=O)C=C[C@]4(C)[C@@]3(F)[C@@H](O)C[C@@]21C [Clobetasol propionate]
HepG2 cells [1]; [3]
  MMP assays IC50 (µM) HepG2: inactive
  MMP assays efficacy (%) HepG2: inactive
HepG2 cells [2]
  MMP assays efficacy (%) qHTS-HepG2: -98±19%
HepG2 cells [2]; [6]
  IC50: 24.6 ± 1.67 µM
Rat primary hepatocytes; Rattus norvegicus, Hepatocyte
  IC50: 24.1 ± 9.54 µM
Rat primary hepatocytes; [5]
  MMP assays efficacy (%) Rat Hepatocytes: -39±3%

## Nc1ccc2cc3ccc(N)cc3nc2c1.Nc1ccc2cc3ccc(N)cc3nc2c1.O=S(=O)(O)O [Proflavin hemisulfate]
HepG2 cells [1]; [3]
  MMP assays efficacy (%) HepG2: -95%
  IC50: 3.46 µM
HepG2 cells [2]
  MMP assays efficacy (%) qHTS-HepG2: -115±21%
HepG2 cells [2]; [4]
  IC50: 3.22 ± 0.82 µM
Rat primary hepatocytes; [5]
  MMP assays efficacy (%) Rat Hepatocytes: -94±11%
  IC50: 11.6 ± 5.45 µM

## CC(=O)OCCN(CCOC(C)=O)c1ccc(N=Nc2ccc([N+](=O)[O-])cc2C#N)cc1 [Disperse Red 82]
HepG2 cells [1]; [3]
  MMP assays efficacy (%) HepG2: -71%
  IC50: 6.31 µM
HepG2 cells [2]
  MMP assays efficacy (%) qHTS-HepG2: -87±5%
HepG2 cells [2]; [6]
  IC50: 8 ± 1.45 µM
Rat primary hepatocytes; [5]
  MMP assays efficacy (%) Rat Hepatocytes: -59±9%
  IC50: 11.7 ± 8.76 µM

## Nc1ccc(NC(=O)c2ccc(N)cc2)cc1 [4,4'-Diaminobenzanilide]
HepG2 cells [1]; [3]
  MMP assays efficacy (%) HepG2: -93%
  IC50: 7.08 µM
HepG2 cells [2]
  MMP assays efficacy (%) qHTS-HepG2: -100±8%
HepG2 cells [2]; [6]
  IC50: 3.72 ± 2.85 µM
Rat primary hepatocytes; [5]
  MMP assays efficacy (%) Rat Hepatocytes: -86±15%
  IC50: 33.5 ± 2.73 µM

## CCCCCCCCCCCCCC[N+](C)(C)Cc1ccccc1.O.O.[Cl-]
HepG2 cells [1]; [3]
  MMP assays efficacy (%) HepG2: -114%
  IC50: 13.8 µM
HepG2 cells [2]
  MMP assays efficacy (%) qHTS-HepG2: -76±17%
HepG2 cells [2]; [6]
  IC50: 16.4 ± 4.28 µM
Rat primary hepatocytes; [5]
  MMP assays IC50 (µM) Rat Hepatocytes: inactive
  MMP assays efficacy (%) Rat Hepatocytes: inactive

## CN1CC(=O)NC1=NC(=O)Nc1cccc(Cl)c1 [Fenobam; McN-3377]
HepG2 cells [1]; [3]
  MMP assays IC50 (µM) HepG2: inactive
  MMP assays efficacy (%) HepG2: inactive
HepG2 cells [2]
  MMP assays efficacy (%) qHTS-HepG2: -70±17%
HepG2 cells [2]; [6]
  IC50: 25.9 ± 1.87 µM
Rat primary hepatocytes; [5]
  MMP assays IC50 (µM) Rat Hepatocytes: inactive
  MMP assays efficacy (%) Rat Hepatocytes: inactive

## CC(C)(c1cc(Br)c(O)c(Br)c1)c1cc(Br)c(O)c(Br)c1 [3,3φ,5,5φ-Tetrabromobisphenol A]
HepG2 cells [1]; [3]
  MMP assays efficacy (%) HepG2: -98%
  IC50: 17.8 µM
HepG2 cells [2]
  MMP assays efficacy (%) qHTS-HepG2: -123±2%
HepG2 cells [2]; [6]
  IC50: 13.2 ± 12.2 µM
Rat primary hepatocytes; [5]
  MMP assays efficacy (%) Rat Hepatocytes: -76±30%
  IC50: 36.9 ± 12.6 µM

## COc1cc(Nc2c(C#N)cnc3cc(OCCCN4CCN(C)CC4)c(OC)cc23)c(Cl)cc1Cl [Bosutinib;PF-5208763/SKI-606]
HepG2 cells [1]; [3]
  MMP assays efficacy (%) HepG2: -57%
  IC50: 1.23 µM
HepG2 cells [2]
  MMP assays efficacy (%) qHTS-HepG2: -97±4%
HepG2 cells [2]; [6]
  IC50: 0.75 ± 0.48 µM
Rat primary hepatocytes; [5]
  MMP assays efficacy (%) Rat Hepatocytes: -56±1%
  IC50: 16.6 ± 11.2 µM

## C[C@H]1C[C@H]2[C@@H]3CCC4=CC(=O)C=C[C@]4(C)[C@@]3(F)[C@@H](O)C[C@]2(C)[C@@]1(O)C(=O)CCl [Clobetasol]
HepG2 cells [1]; [3]
  MMP assays efficacy (%) HepG2: -87%
  IC50: 17.3 µM
HepG2 cells [2]
  MMP assays efficacy (%) qHTS-HepG2: -91±13%
HepG2 cells [2]; [6]
  IC50: 14.4 ± 3.67 µM
Rat primary hepatocytes; [5]
  MMP assays efficacy (%) Rat Hepatocytes: -64±43%
  IC50: 19.8 ± 15.6 µM

## Cc1ccc2oc(CN(Cc3ccccc3)C(=O)Nc3c(F)cc(F)cc3F)c(-c3ccc(Cl)cc3)c2c1
HepG2 cells [1]; [3]
  MMP assays efficacy (%) HepG2: -66%
  IC50: 56.2 µM
HepG2 cells [2]
  MMP assays efficacy (%) qHTS-HepG2: -59±30%
HepG2 cells [2]; [6]
  IC50: 21 ± 2.43 µM
Rat primary hepatocytes; [5]
  MMP assays IC50 (µM) Rat Hepatocytes: inactive
  MMP assays efficacy (%) Rat Hepatocytes: inactive

## CCCCCCCC[N+](C)(CCCCCCCC)CCCCCCCC.O=S(=O)([O-])C(F)(F)F [Methyltrioctylammonium trifluoromethanesulfonate]
HepG2 cells [1]; [3]
  MMP assays efficacy (%) HepG2: -105%
  IC50: 2.24 µM
HepG2 cells [2]
  MMP assays efficacy (%) qHTS-HepG2: -86±9%
HepG2 cells [2]; [4]
  IC50: 2.16 ± 0.72 µM
Rat primary hepatocytes; [5]
  MMP assays efficacy (%) Rat Hepatocytes: -73±33%
  IC50: 11.4 ± 2.12 µM

## Cl.O=C1CSC2(CCN(CCCN3c4ccccc4Sc4ccc(Cl)cc43)CC2)N1 [Spiclomazine hydrochloride]
HepG2 cells [1]; [3]
  MMP assays IC50 (µM) HepG2: inactive
  MMP assays efficacy (%) HepG2: inactive
HepG2 cells [2]
  MMP assays efficacy (%) qHTS-HepG2: -107±11%
HepG2 cells [2]; [4]
  IC50: 34.8 ± 2.36 µM
Rat primary hepatocytes; [5]
  MMP assays IC50 (µM) Rat Hepatocytes: inactive
  MMP assays efficacy (%) Rat Hepatocytes: inactive

## Acriflavine hydrochloride
HepG2 cells [1]
  MMP assays efficacy (%) HepG2: -107%
  IC50: 0.44 µM
HepG2 cells [2]
  MMP assays efficacy (%) qHTS-HepG2: -131±19%
HepG2 cells [2]; [6]
  IC50: 0.94 ± 0.44 µM
Rat primary hepatocytes
  IC50: 3.55 ± 1.14 µM

## Cc1cc2nc3ccc(N(C)C)cc3[s+]c2cc1N.[Cl-] [Toluidine blue]
HepG2 cells [1]; [3]
  MMP assays efficacy (%) HepG2: -44%
  IC50: 4.89 µM
HepG2 cells [2]
  MMP assays efficacy (%) qHTS-HepG2: -50±26%
HepG2 cells [2]; [4]
  IC50: 3.48 ± 1.6 µM
Rat primary hepatocytes; [5]
  MMP assays IC50 (µM) Rat Hepatocytes: inactive
  MMP assays efficacy (%) Rat Hepatocytes: inactive

## CC/C=C\C/C=C\C/C=C\CCCCCCCC(=O)OCC [Ethyl linolenate]
HepG2 cells [1]; [3]
  MMP assays IC50 (µM) HepG2: inactive
  MMP assays efficacy (%) HepG2: inactive
HepG2 cells [2]
  MMP assays efficacy (%) qHTS-HepG2: -51±21%
HepG2 cells [2]; [6]
  IC50: 49.6 ± 36 µM
Rat primary hepatocytes; [5]
  MMP assays IC50 (µM) Rat Hepatocytes: inactive
  MMP assays efficacy (%) Rat Hepatocytes: inactive

## N=C1NC(=N)c2cc3ccccc3cc21 [1,3-Diiminobenz(f)isoindoline]
HepG2 cells [1]; [3]
  MMP assays efficacy (%) HepG2: -95%
  IC50: 35.5 µM
HepG2 cells [2]
  MMP assays efficacy (%) qHTS-HepG2: -82±11%
HepG2 cells [2]; [6]
  IC50: 11.1 ± 7.81 µM
Rat primary hepatocytes; [5]
  MMP assays efficacy (%) Rat Hepatocytes: -68±18%
  IC50: 26.7 ± 23.6 µM

## C=CCc1cc(S(=O)(=O)c2ccc(O)c(CC=C)c2)ccc1O
HepG2 cells [1]; [3]
  MMP assays efficacy (%) HepG2: -107%
  IC50: 15.8 µM
HepG2 cells [2]
  MMP assays efficacy (%) qHTS-HepG2: -114±19%
HepG2 cells [2]; [6]
  IC50: 45 ± 17.9 µM
Rat primary hepatocytes; [5]
  MMP assays efficacy (%) Rat Hepatocytes: -52±23%
  IC50: 24.5 ± 19.9 µM

## Nc1nc2ccc([N+](=O)[O-])cc2s1 [Compound 2-Amino-6-nitrobenzothiazole]
HepG2 cells [1]; [3]
  MMP assays efficacy (%) HepG2: -89%
  IC50: 44.7 µM
HepG2 cells [2]
  MMP assays efficacy (%) qHTS-HepG2: -70±17%
HepG2 cells [2]; [6]
  IC50: 12.7 ± 10.5 µM
Rat primary hepatocytes; [5]
  MMP assays efficacy (%) Rat Hepatocytes: -81±29%
  IC50: 22.7 ± 20.4 µM

## Bis(tributyltin)oxide
HepG2 cells [1]
  MMP assays efficacy (%) HepG2: -98%
  IC50: 0.31 µM
HepG2 cells [2]
  MMP assays efficacy (%) qHTS-HepG2: -112±4%
HepG2 cells [2]; [6]
  IC50: 0.09 ± 0.02 µM
Rat primary hepatocytes
  MMP assays IC50 (µM) Rat Hepatocytes: inactive
